Read-outs that look alike come from different tables or passages of the source.
Legend:
whole blood phagocytes = assay: Oxidative burst, luminol-enhanced chemiluminescence, whole blood; assay type: cell-based, human; details: for IC50: Homo sapiens, diluted whole blood, opsonized zymosan-A, luminol
Protocol: (§1) In addition to that, effects of these compounds on T-cells proliferation were also evaluated; investigating their (Compounds 2 and 3) ability to modulate PHA activated T-cell proliferation response and production of IL-2 cytokine.
(§2) Heparinized blood was obtained by vein puncture aseptically from healthy volunteers (25-38 years age). The buffy coat containing PMNs was collected by dextran sedimentation and the cells were isolated after the LSM density gradient centrifugation from the tube base. Cells were washed twice and suspended in Hank's Balance Salt Solution (Ca^2+ and Mg^2+ free) (HBSS^−−), pH 7.4. Neutrophils were purified from RBCs contamination using hypotonic solution. Cells were adjusted to their required concentration using Hank's Balance Salt Solution containing Ca^2+ and Mg^2+ (HBSS^++).
(§3) Luminol-enhanced chemiluminescence assay was performed as described by Helfand et al. (17), and Haklar et al. (18) with some modifications. Briefly, 25 μL diluted whole blood (1:200 dilution in sterile HBSS^++) or 25 μL of PMNs (1×10^6) cells were incubated with 25 μL of serially diluted compounds with concentration ranges between 3.2-50 mg/mL. Tests were performed in white 96-well plates, which were incubated at 37° C. for […] in the thermostated chamber of the luminometer. Opsonized zymosan-A, 25 μL, followed by 25 μL luminol (7×10^−5 M) along with HBSS^++ was added to each well to obtain a 100 μL volume/well. Wells received HBSS^++, and cells but no compounds were used as a negative control. Chemiluminescence peaks were recorded with the Luminometer. Results were monitored as chemiluminescence relative light units (RLU) with peak and total integral values.

[1] = system: isolated polymorphoneutrophils (PMNs); assay: Oxidative burst, luminol-enhanced chemiluminescence, isolated PMNs; assay type: cell-based, human; details: for IC50: Homo sapiens, isolated PMNs, opsonized zymosan-A, luminol
Protocol: as §1, §2, §3

[2] = system: PHA-activated T-cell proliferation; assay: PHA-activated T-cell proliferation assay (3H-thymidine incorporation); assay type: cell-based, human; details: for IC50: Homo sapiens, T-cell, PHA 5 μg/mL, 72 hours incubation; for effect on T-cell proliferation (in words): PHA-activated
Protocol: (§4) FIG. 2: Effect of Compounds 1-3 on phytohemagglutinin (PHA) T-cell proliferation and production. (2A) The bar graph represents effects of various concentrations of the test Compounds 1-3 after 72 h incubation with peripheral blood mononuclear cells at 37° C. Effect of compounds on T-cell proliferation response is compared with non-proliferated […] cells. The bar graph (2B) represents effects of various concentrations of the test Compounds 1-3 on production of IL-2 compared with (+ve) and without (−ve) PHA induced IL-2 production. Each bar represents the mean value of triplicate reading±SD.
The T-cell proliferation assay was performed as described by Nielson et al. (19). In this assay, isolated lymphocytes were stimulated by adding the phytohemagglutinin (PHA) in culture. The rate of proliferation and survival was measured by radiolabelled thymidine incorporation method. The lymphocytes were isolated as described by Boyum (20). A 50 μL of cell suspension (10^6/mL) was added to each well of a 96-well round bottom tissue culture plate. 50 μL of PHA was added in each well from the working solution (20 μg/mL) to have final concentration 5 μg/mL. The final volume was adjusted to 200 μL in each well by adding complete RPMI media. The plates were incubated at 37° C. for 72 hours (90% humidity, 5% CO2/air). Methyl-^3H thymidine (Amersham Pharmacia Biotech) 0.5 μCi was added in each well and incubated for further 18 hours. Cells were harvested on a filter mat (Type G-7) using cell harvester (INOTECH IH-280, Switzerland) and the radioactivity (CPM) was measured using a β-scintillation counter (LS 6500, Beckman Coulter, USA). (FIG. 2A)

IL-2 production = assay: IL-2 cytokine production by PHA activated peripheral blood mononuclear cells (ELISA); assay type: cell-based, human
Protocol: as §4
IL-2 cytokine was produce from peripheral blood mononuclear cells (PBMC). IL-2 cytokine production by PHA activated cells in the presence or absence of test compounds was studied by ELISA using the human cytokine kit (Diaclone, Besancon Cedex France). Briefly, freshly prepared mononuclear cells (10^5/well) were cultured in 96-well microtiter flat bottom plate in the presence or absence of 5 μg/mL PHA. Four different concentrations (10.33-331.13 μM/mL) of compounds, along with PHA, were used in this assay. The culture plate was incubated at 37° C. for 18 h. Then the supernatant was collected and analyzed for IL-2 cytokine production following kit manufacturer instructions.

[3] = system: human lung cancer cell line (NCI-H460); assay: Sulforhodamine B (SRB) growth inhibition assay; assay type: cell-based; details: for GI50: Homo sapiens
Protocol: The sulforhodamine B (SRB) protein-staining assay was employed for measurement of in vitro growth inhibition and cytotoxicity (21) The appropriate cell density (cells/well) of NCI-H460 cells (1×10^4) was added in 96-well plates. The cell density used was dependent on the doubling time of the cell line leading to the formation of monolayer. After 24 h incubation, different doses of Compounds 1-3 were added and incubated for further 48 h. This was followed by fixation of cells with ice-cold trichloroacetic acid (50 μl, 50%) at room temperature for 30 min. The plates were carefully washed five times with distilled water, and left for overnight drying in air. Sulforhodamine B dye (100 μl, 0.4% in 1% acetic acid) was introduced in each well and after 30 min residual dye was removed using acetic acid (1%) and air-dried overnight. The bound SRB dye was solubilized in Tris-base solution (100 μl, 10 mM) with gentle shaking on a plate-shaker for 5 min prior to optical density (OD) measurements at 545 nm in a plate reader. Drug concentrations causing growth inhibition (GI50) of 50% cells were calculated from dose response curves and total growth inhibition of Compound 2 was also evaluated.

[4] = Homo sapiens, PBMC, 18 h, PHA-activated PBMC, 18 h, ELISA, read-out: IC50 (μM) IL-2

C[C@]12C=CC(=O)C=C1CC[C@@H]1[C@@H]2CC[C@@]2(C)[C@H]1CC[C@]2(C)O [Compound 1, dianabol, reference compound]
IC50 (whole blood phagocytes): > 333 µM
IC50 [1]: > 167 µM
IC50 [2]: > 167 µM
effect on T-cell proliferation (in words) [2]: did not show any significant effect
IC50 (IL-2 production; [4]): > 167 µM
effect on IL-2 production (in words) (IL-2 production; PHA-activated PBMC): did not show any significant effect
anticancer activity against NCI-H460 cell line (in words) [3]: showed anticancer activity
GI50 ([3]; NCI-H460, 48 h, SRB): 28.3 ± 2.72 µM
TGI (μM) ([3]; NCI-H460, 48 h, SRB): ND (ND: Values could not be determined indicates <50% inhibition of cell growth at maximum dose (100 μM) tested.)

C[C@]12CCC(=O)C[C@@H]1CC[C@@H]1[C@@H]2CC[C@@]2(C)[C@H]1CC[C@]2(C)O [Compound 3, 17β-hydroxy-17α-methyl-5α-androstan-3-one]
effect on reactive oxygen species (ROS) production, whole blood phagocytes (in words) (whole blood phagocytes): did not result in any significant effect
IC50 (whole blood phagocytes): > 329 µM
effect on reactive oxygen species (ROS) production, isolated neutrophils (in words) [1]: did not result in any significant effect
IC50 [1]: > 164 µM
IC50 [2]: 42.1 µM
effect on T-cell proliferation (in words) [2]: moderate inhibitory activity
IC50 (IL-2 production; [4]): 49.3 ± 1.32 µM
effect on IL-2 production (in words) (IL-2 production; PHA-activated PBMC): moderate inhibitory activity
IC50 (IL-2 production; PHA-activated PBMC, 18 h, ELISA, read-out: IC50 (μM) IL-2): 49.3 ± 1.32 µM
anticancer activity against NCI-H460 cell line (in words) [3]: non-active
GI50 ([3]; NCI-H460, 48 h, SRB): > 100 µM
growth inhibition of cancer cells at 100 μM (in words) ([3]; NCI-H460, 100 μM): not able to inhibit considerable growth of cancer cells
TGI (μM) ([3]; NCI-H460, 48 h, SRB): ND (ND: Values could not be determined indicates <50% inhibition of cell growth at maximum dose (100 μM) tested.)

C[C@]12C=CC(=O)C[C@@H]1CC[C@@H]1[C@@H]2CC[C@@]2(C)[C@H]1CC[C@]2(C)O [Compound 2, 17β-hydroxy-17α-methyl-5α-androst-1-en-3-one]
effect on reactive oxygen species (ROS) production, whole blood phagocytes (in words) (whole blood phagocytes): did not result in any significant effect
IC50 (whole blood phagocytes): > 331 µM
effect on reactive oxygen species (ROS) production, isolated neutrophils (in words) [1]: did not result in any significant effect
IC50 [1]: > 166 µM
IC50 [2]: < 10.3 µM
IC50 (IL-2 production; [4]): 16.9 ± 1.32 µM
IC50 (IL-2 production; Homo sapiens, PBMC, FIG. 2, read-out: IL-2 production IC50 (unit inferred)): 16.9 ± 1.32 µM
anticancer activity against NCI-H460 cell line (in words) [3]: showed anticancer activity
GI50 ([3]; NCI-H460, 48 h, SRB): 22.5 ± 4.15 µM
TGI ([3]; NCI-H460, 48 h, SRB): 60 ± 9.2 µM

COc1cccc2c1C(=O)c1c(O)c3c(c(O)c1C2=O)C[C@@](O)(C(=O)CO)C[C@@H]3O[C@H]1C[C@H](N)[C@H](O)[C@H](C)O1 [doxorubicin, reference compound]
GI50 ([3]; NCI-H460, 48 h, SRB): 0.08 ± 0.02 µM

Source: patent publication US8389501B2, “Anticancer compound” (priority 2011, dated 2013)
